Entries after “also recorded” stand apart in the source; their conditions may differ. Counter-ions that a name gives are not always drawn. Marks after values point to notes of the source that are not given here. Blank lines part the entries; values can stand above or below the molecule they belong to.
Experiments:
[1] = UV-Vis absorption, fluorescence and quantum yield; format: physicochemical; conditions: for Quantum Yield (PBS): λex = 479 nm (TQ Green), 406 nm (TQ Green-GSH)
Description: TQ Green absorbs at 479 nm and fluoresces at 590 nm (λex=488 nm, FIG. 3). The extinction coefficients of TQ Green and TQ Green-GSH at their maximum absorption wavelengths are (2.3±0.2)×10^4 M^−1·cm^−1 (a, =479 nm, Table 2) and (1.6±0.2)×10^4 M^−1·cm^−1 (λmax=407 nm, Table 1), respectively. Upon reacting with GSH, the Abs and Fl peaks shift hypsochromically to 406 and 463 nm (λex=405 nm), respectively. The Abs of TQ Green and TQ Green-GSH (the adduct between TQ Green and GSH) are close to 488 and 405 nm, respectively, which are two commonly used laser wavelengths for confocal microscopes. […]
NMR spectra were recorded on a Varian NMR (^1H at 400 MHz) spectrometer. Chemical shifts (δ) were given in ppm with reference to solvent signals [^1H NMR: CDCl3 (7.26), CD3OD (3.31)]. UV-Vis measurements were performed with 2×10 mm quartz cuvette in Cary 60 UV-is Spectrometer. Fluorescence measurements were performed with the same quartz cuvette in Cary Eclipse Fluorescence Spectrophotometer with an excitation slit of 5 nm, an emission slit of 10 nm and PMT at 650 V. Flash chromatography was performed on a Teledyne ISCO CombiFlashRf200. Olympus FV1000 laser scanning confocal microscope system was used for cell imaging. ESI mass spectrometry was measured on a BrukerMS microTOF ESI, at the Shared Equipment Authority at Rice University. Flow cytometry was performed on BD LSR II Flow Cytometer at BCM core facilities.
As summarized in Table 5, quantum yields of synthesized GSH probes and a GSH adduct with Rhodamine 123 as the standard were analyzed. Quantum yields were determined using a comparative method described previously. The bromine atom on the phenyl ring potentially enhances the push-pull effect of the coumarin-based fluorophore, thus increases the quantum yield.

[2] = Reaction kinetics and reversibility of probe with GSH (UV-Vis); conditions: 10 mM GSH in PBS, room temperature; TQ Green 16 μM, probe 3a 10 μM
Procedure: The reaction between TQ Green and GSH is reversible.
The second-order rate constant between TQ Green and GSH is 0.150±0.001M^−1·s^−1. There were no appreciable Abs changes observed after 20 minutes. Following a pause for another 80 minutes to ensure that the equilibrium between TQ Green and GSH was fully established, Applicants added two equivalents of an irreversible Michael acceptor (5,6-dihydro-2H-pyran-2-one) to deplete all the GSH in solution (FIG. 4A).
GSH in PBS was added to a solution of TQ Green in PBS buffer (10 mM, pH 7.4) containing 1% DMSO. The final concentrations of GSH and TQ Green were 10 mM and 16 μM, respectively. The solutions were then monitored continuously with UV-Vis spectrometer (FIGS. 21A-D).

[3] = Equilibrium (dissociation constant) of probe and GSH reaction, UV-Vis/fluorescence; format: binding; conditions: reaction with various concentration of GSH in water/PBS pH 7.4; based on UV-Vis; read-out: Kd′ observed (apparent) dissociation constant
Procedure: Applicants also determined Keq between TQ Green and GSH and the relationship of the ratiometric change as a function of GSH concentration. Kd′ is the apparent dissociation constant for the reaction between TQ Green and GSH. The following equation can be derived:
Plotting (R−Rmin)/(Rmax−R) as a function of GSH concentration afforded a superb linear relationship with r^2=0.999 (FIGS. 6-7).
TQ Green was dissolved in PBS buffer (10 mM, pH 7.4) containing 1% DMSO with concentration at 32 μM. GSH was dissolved in the same PBS buffer with concentration from 0-80 mM. Above solutions were mixed at 1:1 ratio. All solutions were protected with nitrogen and stored in glove box to prevent any oxygen entering the solution. Samples of all solutions were taken out at 1, 18, 72, and 144 hours after mixing. UV-Vis and fluorescence were measured for all solutions.
(§1) Compounds 3b-d were dissolved in DMSO (10 mM) and 1 eq of 2 M β-mercaptoethanol (BME) was added. Compounds 3a and TQ Green were dissolved in PBS buffer (10 mM, pH 7.4) with 1% DMSO. GSH solution was added to reach a final concentration of 80 mM with compound 3a at 10 μM and TQ Green at 16 μM, respectively. All solutions were then monitored continuously with UV-Vis and fluorimeter for 2 hours (Table 1).

[4] = Solubility; format: physicochemical; conditions: for solubility: PBS buffer, aqueous buffer
[5] = Reactivity of probes against β-mercaptoethanol in DMSO; format: binding
Procedure: as §1

[6] = system: PANC-1 cells; assay: GSH level changes in PANC-1 cells upon DEM treatment (TQ Green live imaging); format: cell-based
Procedure: PANC-1 cells were treated with diethyl maleate (50 μM) for 24 hours and 2 hours to inhibit and stimulate GSH levels, respectively. All the cells were imaged 24 hours after starting the experiment. Results are statistical analyses of more than 25 cells. P values shown are based on unpaired student t-tests. Error bars represent standard deviations.
Applicants also treated PANC-1 cells with DEM for a very short time to stimulate the uptake of cysteine, thus increasing the GSH levels. After removal of DEM, the cells were further incubated under normal conditions for an additional 22 hours before imaging. […] Importantly, the GSH level obtained in DEM non-treated cells after 24 hours was essentially the same as the value measured at time zero (P=0.63), indicating excellent reproducibility of live imaging based GSH quantification.
PANC-1 cells were incubated with DEM (50 μM) for 2 hours for stimulation of cysteine uptake. After replacing with fresh medium, cells were cultured at normal conditions for another 22 hours. A separate dish of PANC-1 cells were incubated with DEM (50 μM) as an inhibitor for 24 hours. […] GSH concentrations were calculated based on the calibration curve. FACS was performed from harvested cells after treatment, fluorescent intensities were recorded with 405 nm laser/420-460 nm filter (pacific blue channel), and 488 nm laser/515-545 nm filter (FITC channel). […]

[7] = 10 mM solution, capped tube, 10 hour time period, HPLC 254 nm
Procedure: A GSH solution (10 mM) was placed in a capped Eppendorf tube. Samples of solution were taken out for HPLC measurement every two hours. […] The percentage was calculated from the HPLC peak area monitored at 254 nm.

[8] = methanol; cited from earlier work
[9] = system: cells; assay: Confocal imaging of probe interacting with cells (cell penetration); format: cell-based
Procedure: FIG. 10 provides confocal images at 488 nm channel of TQ Green (acid form, FIG. 10A), and TQ Green-AM (ester form, FIG. 10B) interacting with cells.
All cell lines used in this study were purchased from American Type Culture Collection (ATCC) and grown in DMEM (Gibco, 11965) media supplemented with 10% FBS and 1% 1003 Pen Strep (Gibco). Cells were cultured under a controlled atmosphere (37° C., 5% CO2). Glass dishes were used for cell culture due to confocal scanning requirements. Cells were treated with TQ Green-AM (20 nM-1 μM with 0.0025-1% DMSO in PBS) for 30 minutes, followed by two washing steps with tryptan blue and PBS prior to imaging. Fluorescent images were acquired with 405 nm laser/430-470 nm filter and 488 nm laser/575-620 nm filter. All the microscope settings were kept consistent in each experiment.

[10] = Hydrolysis of TQ Green-AM in PBS and diluted HeLa cell lysate (HPLC UV-vis/MS); format: in vitro ADME; conditions: 40 μM, 37° C.
Procedure: In order to allow TQ Green to efficiently penetrate into cells for GSH measurements, Applicants converted the carboxylic acid group to an acetoxymethyl (AM) ester (FIG. 10). Once inside cells, the AM ester will be readily hydrolyzed by esterases to regenerate TQ Green. To verify this, Applicants incubated TQ Green-AM (FIG. 11, 40 μM) in PBS for 2 hours and in a 500 times diluted HeLa cell lysate for 10 hours at 37° C. (Note: the dilution factor for the cell lysate is calculated based on the fact that ˜400,000 of HeLa cells, which have a total volume of ˜2 μL, were lysed in 1 mL of lysis buffer, resulting in 500 times dilution of cellular components, Table 3). A mixture of TQ Green and TQ Green-AM standard samples and the reaction mixtures after incubation in PBS and in cell lysate were separated using high performance liquid chromatography (HPLC) with a tandem of UV-vis and mass spectrometer (MS) detectors.
TQ Green-AM (40 μM) was incubated in PBS for 2 hours and in a 500 times diluted HeLa cell lysate for 10 hours at 37° C. The reaction products were analyzed by HPLC with a tandem of UV-vis and MS detectors. Analytical standards TQ Green and TQ Green-AM (red trace C) were used to determine the retention time of the corresponding compounds. […] Under the elution conditions used, TQ Green and TQ Green-GSH cannot be separated. However, their identities were confirmed by MS. […]

[11] = Log D in octanol-PBS (pH 7.4) biphasic system; format: physicochemical; conditions: pH 7.4, read-out: Log D, estimated value based on HPLC result
Description: To further understand TQ Green distribution between hydrophobic and hydrophilic environments, Applicants measured the Log D values of TQ Green and TQ Green-GSH using an octanol-PBS (pH 7.4) biphasic system (Table 2). […] In addition, Applicants discovered that the absorbance maximum of TQ Green shifts from 480 nm to 455 nm when changing the solvents from PBS to octanol. Applicants hypothesize that if TQ Green is distributed in lipid membranes, the absorbance maximum and fluorescence intensity will change. […] Consistent with the Log D measurements, this experiment also supports the hypothesis that TQ Green accumulates in lipid membranes. Considering the high quantum yield of TQ Green in hydrophobic solvents, lipid enrichment of TQ Green seemingly complicates intracellular GSH quantification. […] However, the Kd′ values may be different under calibration conditions and inside cells, which may introduce a systemic error.

[12] = cited from earlier work

Structure (SMILES): CCOC(=O)/C=C\C(=O)OCC [DEM, diethyl maleate]
Increase in GSH levels ([6]; 50 μM for 2 hours, then 22 hours normal conditions (stimulation)): 28%
Decrease in GSH levels ([6]; 50 μM for 24 hours (inhibition)): 27%

Structure (SMILES): N[C@@H](CCC(=O)N[C@@H](CS)C(=O)NCC(=O)O)C(=O)O [GSH, glutathione]
GSH oxidized in air [7]: About 20%
Solubility in octanol [4]: not soluble

Structure (SMILES): COC(=O)c1ccccc1-c1c2ccc(=N)cc-2oc2cc(N)ccc12.Cl [Rhodamine 123]
Quantum Yield, used as standard [8]: 0.94*

Structure (SMILES): CCN(CC)c1ccc2cc(/C=C/C(=O)c3ccc(C(=O)OCOC(C)=O)cc3Br)c(=O)oc2c1 [TQ Green-AM]
Cell penetration (confocal, 488 nm channel) [9]: able to penetrate through cell the membrane
Hydrolysis in diluted cell lysate ([10]; 500 times diluted HeLa cell lysate, 10 hours): completely converted to a mixture of TQ Green and TQ Green-GSH adduct; also recorded: completely hydrolyzed
Hydrolysis in PBS ([10]; PBS, 2 hours): resistant to hydrolysis; also recorded: did not show appreciable hydrolysis

Structure (SMILES): CCN(CC)c1ccc2cc(C(CC(=O)c3ccc(C(=O)O)cc3Br)SCC(NC(=O)CCC(N)C(=O)O)C(=O)NCC(=O)O)c(=O)oc2c1 (stereo not shown) [TQ Green-GSH]
Abs Max Wavelength ([1]; PBS pH 7.4): 406 nm
Fl Emission Max Wavelength ([1]; PBS pH 7.4, λex = 488 nm (TQ Green), λex = 405 nm (TQ Green-GSH)): 463 nm
Quantum Yield (PBS) [1]: 0.0059±0.0003
Quantum Yield (PBS) ([1]; listed as drawing 20): 0.0059 ± 0.0003
logD [11]: < -1
Solubility in methanol ([4]; methanol): ^aTQ Green-GSH is not soluble in methanol
Solubility in octanol [4]: not soluble

Structure (SMILES): FC(F)(F)c1ccc(S)cc1 [p-trifluorobenzenethiol]
pKa [12]: 5.5

Further lines, with some results ahead:

Quantum Yield (Methanol) ([1]; methanol, Rhodamine 123 as standard): 0.062 ± 0.002
Kd [3]: 1.5 mM
solubility [4]: > 500 µM
Structure (SMILES): CCN(CC)c1ccc2cc(/C=C/C(=O)c3ccc(C(=O)O)cc3)c(=O)oc2c1 [Compound 3a]
Time to reach 95% of conversion [2]: ~6 min

solubility [4]: < 10 µM
Structure (SMILES): CCN(CC)c1ccc2cc(/C=C/C(=O)c3ccccc3)c(=O)oc2c1 [Compound 3b]

solubility [4]: < 10 µM
Structure (SMILES): CCN(CC)c1ccc2cc(/C=C(\C)C(=O)c3ccccc3)c(=O)oc2c1 [Compound 3c]
Michael addition between thiol and probe [5]: significantly blocks the Michael addition

solubility [4]: < 10 µM
Kd ([5]; β-mercaptoethanol in DMSO, read-out: Kd′ observed dissociation constant): ~2 mM
Structure (SMILES): CCN(CC)c1ccc2cc(/C=C/C(=O)c3ccccc3O)c(=O)oc2c1 [Compound 3d]

— patent publication US10921327B2, “Probes for quantitative imaging of thiols in various environments” (Baylor College of Medicine, priority 2014, dated 2021)
